Laboratory results: the NIST ThermoML archive (doi:10.1016/j.jct.2009.07.021)
Several values for one entry are separate records, joined by “and”; a condition that tells them apart may be missing. Identical values can stand only once.

Tests used:
[1] = Crystal, Calculated from knudsen effusion weight loss
[2] = molar enthalpy of transition or fusion; conditions: 298.15 K; Crystal; Clausius-Clapeyron Eq with Heat Capacity

CC(=O)c1cc(-c2ccccc2)sc1C [3-acetyl-2-methyl-5-phenylthiophene]
[1]
Conditions | vapor or sublimation pressure
321.12 K | 6.03e-05 kPa and 6.33e-05 kPa and 6.05e-05 kPa
323.13 K | 7.9e-05 kPa and 7.98e-05 kPa and 7.73e-05 kPa
325.21 K | 0.000102 kPa and 9.93e-05 kPa and 0.0001 kPa
327.12 K | 0.000128 kPa and 0.000126 kPa and 0.00013 kPa
329.16 K | 0.000162 kPa and 0.00016 kPa and 0.000159 kPa
331.2 K | 0.00021 kPa and 0.000202 kPa and 0.000204 kPa
333.12 K | 0.000259 kPa and 0.000261 kPa and 0.000258 kPa
335.15 K | 0.000328 kPa and 0.000322 kPa and 0.000323 kPa
336.13 K | 0.000366 kPa and 0.000371 kPa and 0.000368 kPa
337.2 K | 0.000425 kPa and 0.000414 kPa and 0.000409 kPa
338.15 K | 0.000461 kPa and 0.000462 kPa and 0.00046 kPa
339.2 K | 0.000535 kPa and 0.000522 kPa and 0.000515 kPa

Conditions | molar enthalpy of transition or fusion [kcal/mol]
[2] | 26.03
